{"source": "patent US8093287B2", "about": "“Inhibitors of matrix metalloproteinases” (University of Notre Dame du Lac, priority 2005, dated 2012)", "key": {"[1]": {"molecular_target": "T1, MMP-1 (Homo sapiens, UniProt P03956)", "T1 sequence (P03956 100-469)": "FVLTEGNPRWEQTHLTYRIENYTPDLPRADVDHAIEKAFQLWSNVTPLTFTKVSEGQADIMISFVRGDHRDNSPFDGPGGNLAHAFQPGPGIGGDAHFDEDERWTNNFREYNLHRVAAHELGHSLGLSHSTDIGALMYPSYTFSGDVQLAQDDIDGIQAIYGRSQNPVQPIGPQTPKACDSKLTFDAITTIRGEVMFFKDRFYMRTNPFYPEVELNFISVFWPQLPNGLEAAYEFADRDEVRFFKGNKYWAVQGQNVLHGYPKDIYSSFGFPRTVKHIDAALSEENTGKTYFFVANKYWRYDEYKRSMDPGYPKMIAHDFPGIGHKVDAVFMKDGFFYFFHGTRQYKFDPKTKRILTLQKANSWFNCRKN", "test": "Enzyme kinetics, MMP inhibition (Example 1)", "format": "biochemical"}, "[2]": {"molecular_target": "T2, MMP-7 (Homo sapiens, UniProt P09237)", "T2 sequence (P09237 95-267)": "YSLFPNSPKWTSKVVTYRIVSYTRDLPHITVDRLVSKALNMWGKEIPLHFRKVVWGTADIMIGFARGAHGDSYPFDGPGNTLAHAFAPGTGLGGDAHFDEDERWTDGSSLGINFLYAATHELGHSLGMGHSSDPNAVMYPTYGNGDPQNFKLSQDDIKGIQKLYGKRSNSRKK", "test": "Enzyme kinetics, MMP inhibition (Example 1)", "format": "biochemical"}, "[3]": {"molecular_target": "T3, MMP-9 (Homo sapiens, UniProt P14780)", "test": "Enzyme kinetics, MMP inhibition (Example 1)", "format": "biochemical"}, "[4]": {"molecular_target": "T4, MMP-3 (Homo sapiens, UniProt P08254)", "test": "Enzyme kinetics, MMP inhibition (Example 1)", "format": "biochemical"}, "[5]": {"molecular_target": "T5, MMP-2 (Homo sapiens, UniProt P08253)", "T5 sequence (P08253 110-660)": "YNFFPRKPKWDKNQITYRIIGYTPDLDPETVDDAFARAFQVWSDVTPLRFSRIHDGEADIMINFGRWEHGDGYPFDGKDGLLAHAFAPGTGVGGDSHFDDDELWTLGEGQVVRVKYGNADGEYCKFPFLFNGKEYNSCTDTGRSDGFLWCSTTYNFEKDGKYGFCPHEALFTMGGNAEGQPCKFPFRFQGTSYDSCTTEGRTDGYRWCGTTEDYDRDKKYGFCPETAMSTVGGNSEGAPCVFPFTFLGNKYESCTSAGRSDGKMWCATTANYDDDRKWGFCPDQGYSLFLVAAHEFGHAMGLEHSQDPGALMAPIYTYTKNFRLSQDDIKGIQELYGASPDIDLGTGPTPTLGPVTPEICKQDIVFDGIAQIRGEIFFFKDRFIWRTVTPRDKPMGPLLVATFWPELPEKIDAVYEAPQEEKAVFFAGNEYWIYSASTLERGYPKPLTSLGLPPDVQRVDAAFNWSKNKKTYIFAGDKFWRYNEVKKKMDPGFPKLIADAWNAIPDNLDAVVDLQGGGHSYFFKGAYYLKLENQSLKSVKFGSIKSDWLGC", "test": "Enzyme kinetics, MMP inhibition (Example 1)", "format": "biochemical", "details": "for Ki: for 1.3 with slow-binding component"}, "[6]": {"molecular_target": "T6, MMP-14cat (Homo sapiens, UniProt P50281)", "T6 construct": "MMP-2 (A), MMP-9 (B) and MMP-14cat (C)", "test": "Enzyme kinetics, MMP inhibition (Example 1)", "format": "biochemical"}, "[7]": {"test": "physchem", "details": "37 °C, pH 7.5, aqueous with cosolvent or surfactant or cyclodextrin, kinetic from dmso stock"}, "[8]": {"molecular_target": "T1, MMP-1", "test": "biochemical"}, "[9]": {"test_system": "HT1080 cells", "test": "Migration assay, scratch wound", "format": "cell-based, human", "method": "(§1) FIG. 7 illustrates inhibition of HT1080 cell motility and invasion by inhibitor 2.3. A-B: Confluent cultures of HT1080 cells in 6-well plates were treated with mitomycin C (25 μg/ml) in serum-free DMEM media for 30 minutes. Scratch wounds were made on the monolayers and the wounded cultures were then incubated with serum-free DMEM supplemented without or with various amounts of inhibitor 2.3 (0-20 μM) for up to 20 hours. At each time period, the cultures were photographed (A) and the width of the scratch wound was measured as described under the Experimental Procedures section of Example 2. (C): HT1080 cells were seeded in 8-μm pore Transwell filters coated with Matrigel (50 μg/filter) in the presence or absence of inhibitor 2.3 (0.1-10 μM). The number of cells that invaded to the lower side of the filter was counted in three representative fields. Each value represents the mean±SE of four independent determinations. *P<0.05, and *P<0.001 when tested against the control using Tukey-Kramer Multiple Comparisons Test (P=0.004 by ANOVA).\nMigration and Invasion Assays—For migration assays, HT1080 cells were cultured in 6-well plates in complete media until they reached confluence. […] The extent of wound closure in the presence or absence of inhibitor was quantified by measuring the width of the wound with a ruler using an amplified PowerPoint figure."}, "[10]": {"test_system": "HT1080 cells", "test": "Tumor cell invasion, Matrigel-coated Transwell", "format": "cell-based", "details": "Homo sapiens, HT-1080; 100 nM; Matrigel-coated filters, 18 h", "method": "as §1\nTumor cell invasion was carried out in 8-μm pore Transwell inserts (Becton Dickinson, Boston, Mass.) coated with 50 μg Matrigel per filter. […] The cells that migrated to the lower side of the Matrigel-coated filter were fixed and stained with Diff-Quik® (Dade Behring Inc., Newark, Del.), and counted under a microscope in three different fields. […]"}, "[11]": {"molecular_target": "T3, MMP-9", "details": "read-out: Ki of the slow-binding component"}, "[12]": {"molecular_target": "T2, MMP-7", "details": "MMP-7, rapid competitive inhibition"}, "[13]": {"test_system": "HT1080 cells", "test": "Chemosensitivity assay (WST-1)", "format": "cell-based, human", "details": "up to 10 μM, 18 hours", "method": "Chemosensitivity Assay—Cell viability after exposure of the cells to the inhibitors was assessed by 2-(4-iodophenyl)-3-(4-nitrophenyl)-5-(2,4-disulfophenyl)-2H-tetrazolium, monosodium salt (WST-1, Roche Diagnostics Gmbh, Mannheim, Germany) staining Briefly, HT1080 cells (2×10^4 cells/well) were seeded in 96-well culture plates in complete medium. After overnight culture, the medium was replaced with serum and phenol-free media containing 0.1% BSA and supplemented with or without inhibitor 2.3 (0-10 μM final concentrations). Control medium was supplemented with 1% DMSO. After 18 hours incubation, WST-1 (10 μL/well) was added and the difference in absorbance at 450 and 655 (reference filter) nm was measured using a Bio-Rad Benchmark microplate reader. Data were collected using the Microplate Manager software. The absorbance of blank wells containing control media but no cells (typically <5%) was subtracted. Each treatment was assayed in quadruplicate."}, "[14]": {"molecular_target": "T7, MMP-14 (Homo sapiens, UniProt P50281)", "details": "MMP-14, slow-binding component, koff/kon"}, "[15]": {"molecular_target": "T4, MMP-3", "details": "MMP-3, rapid competitive inhibition"}, "[16]": {"molecular_target": "T4, MMP-3", "test": "biochemical"}, "[17]": {"molecular_target": "T7, MMP-14", "test": "biochemical"}, "[18]": {"molecular_target": "T3, MMP-9", "test": "biochemical"}, "[19]": {"molecular_target": "T2, MMP-7", "test": "biochemical"}, "[20]": {"test": "Assessment of inhibitor solubility", "details": "37 °C, pH 7.5, aqueous with cosolvent or surfactant or cyclodextrin, kinetic from dmso stock"}}, "note": "Like-named read-outs stand apart in the source and are kept apart here.", "data": [{"compound": "2-(4-{4-[(2-Thiiranylpropyl)sulfonyl]phenoxy}phenyl)acetic acid [Compound 1.4]", "values": [{"measurement": "Ki", "setting": "[1]", "value": 4.5, "unit": "µM"}, {"measurement": "Ki", "setting": "[2]", "value": 250, "unit": "µM"}, {"measurement": "Ki", "setting": "[3]", "value": 4.1, "unit": "µM"}, {"measurement": "Ki", "setting": "[4]", "value": 540, "unit": "µM"}, {"measurement": "Ki", "setting": "[5]", "value": 0.46, "unit": "µM"}, {"measurement": "Ki", "setting": "[6]", "value": 53, "unit": "µM"}]}, {"compound": "O=S(=O)(CC1CS1)c1ccc(Oc2ccccc2)cc1", "note": "(stereo not drawn) [Compound 2.1, reference compound]", "values": [{"measurement": "solubility", "setting": "[7]", "value": 80, "unit": "µM"}]}, {"compound": "CS(=O)(=O)Nc1ccc(Oc2ccc(S(=O)(=O)CC3CS3)cc2)cc1", "note": "(stereo not drawn) [Compound 2.3, {4-[4-(Methanesulfonamido)phenoxy]phenylsulfonyl}methylthiirane]", "values": [{"measurement": "Ki", "setting": "[8]", "value": "> 25", "unit": "µM"}, {"measurement": "solubility", "setting": "[7]", "value": 340, "unit": "µM"}, {"measurement": "migration in scratch wound assay", "setting": "[9]; 200 nM", "value": "slower migration"}, {"measurement": "inhibition at 2 µM", "setting": "[9]; Homo sapiens, HT-1080", "value": 80, "unit": "%"}, {"measurement": "inhibition at 0.1 µM", "setting": "[10]", "value": "> 25", "unit": "%"}, {"measurement": "Ki", "setting": "[11]", "value": "0.18 ± 0.05", "unit": "µM"}, {"measurement": "Ki", "setting": "[12]", "value": "295 ± 10", "unit": "µM"}, {"measurement": "cell toxicity (WST-1)", "setting": "[13]", "value": "no evidence of cell toxicity"}, {"measurement": "Ki", "setting": "[14]", "value": "0.9 ± 0.1", "unit": "µM"}, {"measurement": "Ki", "setting": "[15]", "value": "3.6 ± 0.2", "unit": "µM"}]}, {"compound": "O=[N+]([O-])c1ccc(Oc2ccc(S(=O)(=O)CC3CO3)cc2)cc1", "note": "(stereo not drawn) [Compound 2.4, [4-(4-Nitrophenoxy)phenylsulfonyl]methyloxirane]", "values": [{"measurement": "Ki", "setting": "[8]", "value": "> 298", "unit": "µM"}, {"measurement": "Ki", "setting": "[16]", "value": "> 190", "unit": "µM"}, {"measurement": "Ki", "setting": "[17]", "value": "76 ± 13", "unit": "µM"}, {"measurement": "Ki", "setting": "[18]", "value": "25 ± 5", "unit": "µM"}, {"measurement": "Ki", "setting": "[19]", "value": "130 ± 15", "unit": "µM"}]}, {"compound": "O=[N+]([O-])c1ccc(Oc2ccc(S(=O)(=O)CC3CS3)cc2)cc1", "note": "(stereo not drawn) [Compound 2.5, [4-(4-Nitrophenoxy)phenylsulfonyl]methylthiirane]", "values": [{"measurement": "Ki", "setting": "[8]", "value": "67 ± 18", "unit": "µM"}, {"measurement": "Ki", "setting": "[16]", "value": "131 ± 9", "unit": "µM"}, {"measurement": "Ki", "setting": "[17]", "value": "4.9 ± 0.3", "unit": "µM"}, {"measurement": "solubility", "setting": "[20]", "value": 60, "unit": "µM"}, {"measurement": "Ki", "setting": "[18]", "value": "1 ± 0.1", "unit": "µM"}, {"measurement": "Ki", "setting": "[19]", "value": "153 ± 16", "unit": "µM"}]}, {"compound": "CC(=O)Nc1ccc(Oc2ccc(S(=O)(=O)CC3CO3)cc2)cc1", "note": "(stereo not drawn) [Compound 2.6, [4-(4-Acetamidophenoxy)phenylsulfonyl]methyloxirane]", "values": [{"measurement": "Ki", "setting": "[8]", "value": "> 154", "unit": "µM"}, {"measurement": "Ki", "setting": "[16]", "value": "> 188", "unit": "µM"}, {"measurement": "Ki", "setting": "[17]", "value": "> 230", "unit": "µM"}, {"measurement": "Ki", "setting": "[18]", "value": "34 ± 3", "unit": "µM"}, {"measurement": "Ki", "setting": "[19]", "value": "> 184", "unit": "µM"}]}, {"compound": "CC(=O)Nc1ccc(Oc2ccc(S(=O)(=O)CC3CS3)cc2)cc1", "note": "(stereo not drawn) [Compound 2.7, [4-(4-Acetamidophenoxy)phenylsulfonyl]methylthiirane]", "values": [{"measurement": "solubility", "setting": "[7]", "value": 540, "unit": "µM"}]}, {"compound": "Methyl 2-(4-{4-[(2-Thiiranylpropyl)sulfonyl]phenoxy}phenyl)-acetate [Compound 1.3]", "values": [{"measurement": "Ki", "setting": "[1]", "value": 11, "unit": "µM"}, {"measurement": "Ki", "setting": "[2]", "value": 13, "unit": "µM"}, {"measurement": "Ki", "setting": "[3]", "value": "0.04 ± 0.002", "unit": "µM"}, {"measurement": "Ki", "setting": "[4]", "value": 8.7, "unit": "µM"}, {"measurement": "koff, slow-binding component of inhibition", "setting": "[5]", "value": "(6.2 ± 0.7) × 10^−4 s^−1"}, {"measurement": "kon, slow-binding component of inhibition", "setting": "[5]", "value": "(1.2 ± 0.3) 10^4 M^−1s^−1"}, {"measurement": "Ki", "setting": "[5]", "value": "0.05 ± 0.014", "unit": "µM"}, {"measurement": "Ki", "setting": "[6]", "value": "0.59 ± 0.07", "unit": "µM"}]}]}
